1 substance from US9315531B2, “Titanocene-gold derivatives comprising thiolato ligands” (Research Foundation of the City University of New York, priority 2014, dated 2016) can be followed below.

How the values of data set [1] were obtained: The lethal dose (LD) and maximum tolerated doses (MTD) of compound 2 were evaluated in C57/BL6 mice (see experimental for details). […] Twenty-four hours after the last dose all mice used in the MTD study were euthanized and blood plasma, liver, spleen and kidneys were collected and used for histological analysis.
Lethal and maximum tolerated doses (LD and MTD): Determination of lethal and maximum tolerated doses (LD and MTD) in mice: The preliminary toxicity testing of compound 2 was performed in C57BL/6 female mice six to eight weeks of age, maintained in accordance with institutional guidelines at the University of Hawaii Cancer Center (UHCC) governing the care of laboratory animals (IACUC number: A3423-01). To determine the lethal dose, mice were treated for five consecutive days at dosages ranging from 1.5 mg/kg/day to 6 mg/kg/day. One mouse per dose was used. Mice were weighed every forty-eight hours, and sacrificed twenty-four hours after the last dose. […] In order to determine the maximum tolerated dose (MTD) the animals were monitored by trained individuals for pain and distress as appropriate for the animal, under conditions and by procedures established by the UHCC vivarium veterinarian staff and research personnel (BTE). The maximum tolerated dose (MTD) was determined by observing the progression of the mice treated at doses below the lethal dose. Body weights, changes in behavior and signs of distress were recorded. The dose at which neither debilitating effects nor sign of distress were observed was set as the MTD. More specifically the signs for distress monitored were: 1. Decreased food and water consumption; 2. […] Abnormal posture/positioning (e.g., head-pressing, hunched back); 4. Unkempt appearance (erected, matted, or dull haircoat); 5. Self-mutilation, gnawing at limbs; 6. Excessive self-imposed isolation/hiding. […] One group of mice was treated with the solvent (negative control).

The next data set has as its system UO31. In words: Cell viability assay (XTT), UO31. Type of data set: cell-based, human. The conditions noted are these: 72 h. The source says: Cell Culture: Human renal cell carcinoma lines A498, Caki-1 and UO31, as well as the human prostate carcinoma cell lines DU145 and PC3 were newly obtained for these studies from the American Type Culture Collection (ATCC) (Manassas, Va., USA) and cultured in Roswell Park Memorial Institute (RPMI-1640) (Mediatech Inc., Manassas, Va.) media containing 10% fetal bovine serum (FBS, Life Technologies, Grand Island, N.Y.), 1% Minimum Essential Media (MEM) nonessential amino acids (NEAA, Mediatech) and 1% penicillin-streptomycin (PenStrep, Mediatech). HEK-293T cells were newly purchased from ATCC (Manassas, Va., USA) and maintained in Dulbecco's modified Eagle's medium (DMEM) (Mediatech) supplemented with 10% FBS, 1% NEAA and 1% PenStrep. […]
Cell Viability Assay: Cells were seeded at a concentration of 5000 cells/90 μl per well of either RPMI or DMEM without phenol red and without antibiotics, supplemented with 10% FBS and 2 mM L-glutamine into tissue culture grade 96-well flat bottom microplates (BioLite Microwell Plate, Fisher Scientific, Waltham, Mass., USA) and grown for 24 h at 37° C. in a humidified incubator. […] The optical absorbance of each well in a 96-well plate was quantified using BioTek ELx808 absorbance microplate reader (BioTek Winooski, Vt.) set at 450 nm wavelength. The percentage of surviving cells was calculated from the ratio of absorbance of treated to untreated cells.

The subject of a further data set is Caki-1 cells. In words: Annexin V/PI apoptosis assay. In kind it is cell-based, human. The conditions noted are these: Caki-1, 6 hours incubation, 10 μM. On the procedure:
To gain insight concerning the type of cell death that is induced in cancer cell lines, apoptosis assays were performed with Caki-1 cells with compound 2 dissolved in 1% DMSO solution in media. A 1% solution in media (FIG. 7) and staurosporine (FIG. 8) were used as controls. In early stages of apoptosis, one of the significant biochemical features is loss of plasma membrane phospholipid asymmetry due to translocation of phosphatidylserine (PS) from cytoplasmic to extracellular side. This characteristic allows detection of externalized PS by the specific binding of Annexin V (FITC-conjugated). Initiation of cell death will eventually result in the permeabilization of the cell membrane, allowing Pi to stain DNA within the nucleus. […] After incubation during 6 hours with 10 μM of compound 2 necrosis can be clearly proposed.
Annexin V/PI assay: Confluent Caki-1 cells were treated with either […], 0.1% DMSO or 5 μM of staurosporine for 6 h. […] Stained cells were analyzed by flow cytometry using Accuri C6 software (BD Biosciences, San Jose, Calif., USA).

For data set [2] the following is noted: end of the study.
Experimental: At the end of the study, liver, kidney and tumor of the animals were harvested, weighed and transferred into glass vials. One ml of water was added to each samples and subjected to ultrasonic tissue disruption at 15 W power for 1 minute. The tissue homogenates were frozen at −80° C. for two hours and lyophilized. The lyophilized product was heated at 90° C. with the concentrated acid mix (described above) for five hours, cooled, diluted with water and analyzed for titanium and gold by ICP-MS.
A further data set relates to MAPKAPK3. The data set is described as follows: Protein kinase expression in Caki-1 whole cell lysates (Western blot), MAPKAPK3. Type of data set: cell-based, human. The note with it: Caki-1, by 12 hours post-treatment.

Experimental for MAPKAPK3: The Caki-1 cells were then lysed and a Western blot analysis was performed with anti-MAPKAPK-3 antibody. Blots were probed with anti-β-Actin antibody as a control for protein loading.
Cell lysis and immunoblotting: Caki-1 cells were seeded into 10-cm dishes at a density of 2.2×10^6 and incubated for 24 hours. […] After microcentrifuging for 5 minutes at 4° C., pellets were treated with ice-cold lysis buffer with cell extraction buffer (BioSource, Camarillo, Calif.) containing 0.1% protease inhibitors and 1% phosphatase inhibitors cocktail (Fisher Scientific, Pittsburgh, Pa.) for 10 minutes, then sonicated for 10 seconds three times, and placed on ice. The lysed cells were centrifuged at 10,000×g at 4° C. for 10 minutes to remove the pellets representing the insoluble cell fraction.
The protein concentration was determined with BCA protein dye reagent (Pierce, Fisher Scientific Pittsburgh, Pa.). […]
Experimental for thioredoxin reductase: After 5, 12 or 24 hours of treatment incubation cells were washed three times in PBS, and lysed by douncing using scrapers and sheer force though syringe with a 34 gauge needle in assay buffer (Abeam Thioredoxin Reductase Assay kit, ab83463) added to 1 mM protease inhibitor cocktail (Abeam, ab65621). The lysates were centrifuged at 10,000×g for 15 minutes at 4° C. to isolate insoluble material. The total protein concentrations of soluble lysates were measured using the BCA Protein Assay (Life Technologies). The soluble lysates were incubated for 20 minutes in assay buffer with a proprietary thioredoxin reductase specific inhibitor before adding a specific substrate, DTNB (5, 5′-dithiobis(2-nitrobenzoic) acid), and measuring activity at 1 minute intervals for 30 minutes using the BioTek fluorescence microplate reader (BioTek U.S., Winooski, Vt.) set at =412 nm. Lysates were tested in duplicate. TrxR activity was calculated based on the linear amount of TNB produced per minute per mg of total protein and corrected for background activity from enzymes other than TrxR in the lysates.

Usually IC50 stands for the point on the concentration scale where inhibition reaches its midpoint. Regarding “[(η-C5H5)2TiMe(μ-mba)Au(PPh3)] [Compound 2]”, the “necropsy findings at MTD” value in data set [1] (10 mg/kg/day compound 6, 5 mg/kg/day compound 2) is “normal liver and slightly enlarged spleens”. Besides, the “maximum tolerated dose (MTD)” value in data set [1] (C57/BL6 mice, no visible signs of distress over seven days) is reported as 5 mg/kg/day. Besides, the “lethal dose (LD)” value in data set [1] (C57/BL6 mice, once daily subcutaneous injection) is 6 mg/kg/day. The “inhibition of thioredoxin reductase activity” value in the data set on thioredoxin reductase (Caki-1 cells, 5 μM, five hour incubation) turned out to be 31.6%. Moreover, at thioredoxin reductase (read-out: IC50 thioredoxin reductase in Caki-1 cells, after twelve hours), the IC50 worked out at 880 nM. The “IC50 UO31” value in the data set on UO31 is “nanomolar range”. The “type of cell death induced” value in the data set with Caki-1 cells is “necrosis”. Moreover, the “accumulation in liver and kidney” value in data set [2] was “accumulated in the liver and kidney to a more significant degree”. Moreover, the “expression of MAPKAPK3” value with MAPKAPK3 was “dramatic decreases in expression”.
